Patent US20200123208A1, “PEPTIDES AND NEMATICIDAL COMPOSITIONS” (priority 2017, published 2020)

How the values were obtained:
Type in all cases: in vivo
[1] = system: Meloidogyne incognita infective stage juveniles (J2s); assay: Chemosensory (chemotaxis) assay towards root exudate, M. incognita J2s; details: for chemotaxis index (Cl) towards root exudate: M. incognita J2s
Protocol: (§1) Predicted uNLPs from both M. incognita and G. pallida were synthesised by EZBiolab and dissolved into pH adjusted ddH2O to make a 5 mM stock which was aliquoted and stored at −20° C. J2s of both M. incognita and G. pallida were incubated for 24 hours in 200 μl of each peptide in a 24 well plate (SPL Lifesciences, South Korea) at a defined concentration.
(§2) A 60 mm Petri dish was divided into two segments, a positive and a negative side, with a 0.5 cm ‘dead zone’ either side of the centre point. The petri dish was filled with 15 ml of 0.25% w/v agar which was allowed to solidify. 3 ml of 0.25% w/v agar slurry in spring water (pH 7, agitated with a magnetic stirrer for several hours to give a smooth consistency) was added to the petri dish and spread evenly over the surface. Root diffusate (attractant) and water only (control) 0.25% agar plugs were embedded in the agar slurry, either side of the assay arena. Root diffusate was collected from 10 tomato plants, aged 3-6 weeks in 1 litre pots, by pouring 500 ml of ddH2O through the soil three times. Diffusate from each plant was combined, filter sterilised and stored at 4° C. for a maximum of 1 month. Root diffusate agar plugs were made by melting 1.25% agar in ddH2O, cooling to 50° C. before mixing with 4 parts of root diffusate. The agar was then allowed to solidify at room temperature. 100 uNLP pre-treated M. incognita or G. pallida J2s were added by pipette to the centre of the plate. J2s which moved out of the ‘dead zone’ after 3 hours were counted and their location (+/−) scored. The distribution of J2s were used to create a chemotaxis index for each plate, which formed one replicate, a total of 10 replicates where completed for each uNLP treatment.

[2] = system: Meloidogyne incognita J2s; assay: Tomato invasion assay, M. incognita J2s
Protocol: as §1
Tomato seeds were sterilised with 2.5% NaOCl for 15 minutes, washed 5 times in ddH2O and germinated on 0.5% Murashige and Skoog plates at 23° C. […] Invasion assays were performed by mixing 500 pre-treated M. incognita or G. pallida J2s with agar slurry and a single tomato seedling (2 days post germination) in a 6 well plate. Assays were left at 23° C. for 24 hours in the case of M. incognita and at 18° C. for 24 hours in the case of G. pallida under a 16 hour light and 8 hour darkness cycle. Seedlings were stained using acid fuschin [69] and the number of nematodes within the roots counted.

[3] = system: Globodera pallida infective stage juveniles (J2s); assay: Chemosensory (chemotaxis) assay towards root exudate, G. pallida J2s; details: 100 μM uNLP, 24 h, mean+/-SEM
Protocol: as §1, §2

[4] = Mi-NLP-15b 100 μM, 24 h (dilution series)

## SFDSFTGPGFTGLD [Mi-NLP-15b]
[1]; 100 μM uNLP, 24 h, mean+/-SEM
  chemotaxis index (Cl) towards root exudate: −0.3408+/−0.2207
[1]; Mi-NLP-15b 100 pM, 24 h
  chemotaxis index (Cl) towards root exudate: 0.03117+/−0.1594
[1]; Mi-NLP-15b 1 nM, 24 h
  chemotaxis index (Cl) towards root exudate: −0.07105+/−0.1534
[1]; Mi-NLP-15b 10 nM, 24 h
  chemotaxis index (Cl) towards root exudate: −0.1741+/−0.1724
[1]; Mi-NLP-15b 100 nM, 24 h
  chemotaxis index (Cl) towards root exudate: −0.1195+/−0.1968
[1]; Mi-NLP-15b 1 μM, 24 h
  chemotaxis index (Cl) towards root exudate: −0.1344+/−0.1733
[1]; Mi-NLP-15b 10 μM as printed (last of the series, after 100 pM), 24 h
  chemotaxis index (Cl) towards root exudate: −0.1553+/−0.2642
[1]; Mi-NLP-15b 10 μM, 24 h (dilution series)
  chemotaxis index (Cl) towards root exudate: −0.03579+/−0.1504
[1]; [4]
  chemotaxis index (Cl) towards root exudate: −0.3782+/−0.07224
[1]; serial dilution, 24 h exposure
  lowest concentration inhibiting M. incognita chemosensation: 10 pM
[2]; 100 μM uNLP, 24 h, tomato seedlings, normalised to negative control
  host invasion compared to controls: 32.22%+/−8.122
[2]; Mi-NLP-15b 100 nM, 24 h
  J2 invasion relative to control: 69.9%+/−10.66
[2]; Mi-NLP-15b 1 μM, 24 h
  J2 invasion relative to control: 59.05%+/−8.545
[2]; Mi-NLP-15b 10 μM, 24 h
  J2 invasion relative to control: 54.62%+/−8.362
[2]; [4]
  J2 invasion relative to control: 35.06%+/−6.407
[3]
  chemotaxis index (Cl) towards root exudate: −0.04762+/−0.1983
